Measured values published in PMC5064435, “Inhibition of endoplasmic reticulum glucosidases is required for in vitro and in vivo dengue antiviral activity by the iminosugar UV-4” (Antiviral Research, 2016).
Structures can show the parent of a compound that is named as a salt.

Experiments:
[1] = biological target: T1, Rat intestinal isomaltase (Rattus norvegicus, UniProt P23739); experiment: enzyme inhibition assay; format: biochemical; conditions: read-out: IC50 ^a / UV-4B
T1 construct: gene Si; native rat intestinal enzyme; isomaltase (N-terminal) subunit of sucrase-isomaltase
Description: enzyme inhibition assay on Rat intestinal isomaltase

[2] = biological target: T2, α-glucosidase II (human MDMΦs) (Homo sapiens, UniProt Q14697); experiment: free oligosaccharide (Glc1Man4GlcNAc1) accumulation in human MDMΦs; format: cell-based; conditions: […] h treatment of uninfected cells
T2 construct: gene GANAB; endogenous enzyme in primary human monocyte-derived macrophages; with Glucosidase 2 subunit beta
T2 sequence (Q14697 29-944): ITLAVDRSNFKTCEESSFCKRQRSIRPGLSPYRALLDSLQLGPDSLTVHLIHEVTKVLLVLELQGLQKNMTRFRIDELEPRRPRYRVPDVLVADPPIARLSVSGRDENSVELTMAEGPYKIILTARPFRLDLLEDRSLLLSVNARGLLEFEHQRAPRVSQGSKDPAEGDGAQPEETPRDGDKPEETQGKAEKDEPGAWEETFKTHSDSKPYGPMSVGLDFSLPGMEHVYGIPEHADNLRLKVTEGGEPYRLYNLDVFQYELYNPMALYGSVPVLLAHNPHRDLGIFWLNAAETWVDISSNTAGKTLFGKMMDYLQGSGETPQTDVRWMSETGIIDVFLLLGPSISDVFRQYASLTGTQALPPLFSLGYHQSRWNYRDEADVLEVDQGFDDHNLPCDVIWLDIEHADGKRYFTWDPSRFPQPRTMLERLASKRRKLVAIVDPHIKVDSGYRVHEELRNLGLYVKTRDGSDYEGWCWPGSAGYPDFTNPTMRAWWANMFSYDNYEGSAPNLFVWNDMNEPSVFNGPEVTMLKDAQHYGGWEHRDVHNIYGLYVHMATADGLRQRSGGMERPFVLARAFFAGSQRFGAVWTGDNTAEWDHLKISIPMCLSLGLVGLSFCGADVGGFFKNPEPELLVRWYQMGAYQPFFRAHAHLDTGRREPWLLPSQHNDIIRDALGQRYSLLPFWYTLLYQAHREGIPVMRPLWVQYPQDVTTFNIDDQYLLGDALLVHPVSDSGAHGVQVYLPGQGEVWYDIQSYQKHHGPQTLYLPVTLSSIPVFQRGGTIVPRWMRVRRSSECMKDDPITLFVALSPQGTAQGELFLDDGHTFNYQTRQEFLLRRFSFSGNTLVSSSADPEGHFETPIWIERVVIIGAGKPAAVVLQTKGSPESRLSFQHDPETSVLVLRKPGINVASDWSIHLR
T2 sequence (P14314 15-528 partner): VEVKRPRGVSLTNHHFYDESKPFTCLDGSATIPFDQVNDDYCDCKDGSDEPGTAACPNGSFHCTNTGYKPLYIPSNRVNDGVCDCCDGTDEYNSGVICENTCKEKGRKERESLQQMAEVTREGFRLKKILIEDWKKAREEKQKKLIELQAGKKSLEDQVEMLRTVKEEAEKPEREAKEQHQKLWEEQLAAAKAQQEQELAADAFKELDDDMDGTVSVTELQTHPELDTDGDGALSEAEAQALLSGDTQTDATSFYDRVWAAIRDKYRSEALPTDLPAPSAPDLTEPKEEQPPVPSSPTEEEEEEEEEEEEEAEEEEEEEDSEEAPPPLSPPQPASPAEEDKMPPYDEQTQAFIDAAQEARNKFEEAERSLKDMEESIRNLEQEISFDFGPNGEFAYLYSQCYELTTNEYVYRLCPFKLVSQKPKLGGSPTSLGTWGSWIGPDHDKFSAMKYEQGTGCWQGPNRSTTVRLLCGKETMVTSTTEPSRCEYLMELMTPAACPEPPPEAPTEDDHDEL

[3] = biological target: T3, Mouse ER α-glucosidase II (Mus musculus, UniProt Q8BHN3); experiment: enzyme inhibition assay, purified enzyme; format: biochemical; conditions: read-out: IC50 ^a / UV-4B
T3 construct: gene Ganab; with Glucosidase 2 subunit beta
T3 sequence (Q8BHN3 33-944): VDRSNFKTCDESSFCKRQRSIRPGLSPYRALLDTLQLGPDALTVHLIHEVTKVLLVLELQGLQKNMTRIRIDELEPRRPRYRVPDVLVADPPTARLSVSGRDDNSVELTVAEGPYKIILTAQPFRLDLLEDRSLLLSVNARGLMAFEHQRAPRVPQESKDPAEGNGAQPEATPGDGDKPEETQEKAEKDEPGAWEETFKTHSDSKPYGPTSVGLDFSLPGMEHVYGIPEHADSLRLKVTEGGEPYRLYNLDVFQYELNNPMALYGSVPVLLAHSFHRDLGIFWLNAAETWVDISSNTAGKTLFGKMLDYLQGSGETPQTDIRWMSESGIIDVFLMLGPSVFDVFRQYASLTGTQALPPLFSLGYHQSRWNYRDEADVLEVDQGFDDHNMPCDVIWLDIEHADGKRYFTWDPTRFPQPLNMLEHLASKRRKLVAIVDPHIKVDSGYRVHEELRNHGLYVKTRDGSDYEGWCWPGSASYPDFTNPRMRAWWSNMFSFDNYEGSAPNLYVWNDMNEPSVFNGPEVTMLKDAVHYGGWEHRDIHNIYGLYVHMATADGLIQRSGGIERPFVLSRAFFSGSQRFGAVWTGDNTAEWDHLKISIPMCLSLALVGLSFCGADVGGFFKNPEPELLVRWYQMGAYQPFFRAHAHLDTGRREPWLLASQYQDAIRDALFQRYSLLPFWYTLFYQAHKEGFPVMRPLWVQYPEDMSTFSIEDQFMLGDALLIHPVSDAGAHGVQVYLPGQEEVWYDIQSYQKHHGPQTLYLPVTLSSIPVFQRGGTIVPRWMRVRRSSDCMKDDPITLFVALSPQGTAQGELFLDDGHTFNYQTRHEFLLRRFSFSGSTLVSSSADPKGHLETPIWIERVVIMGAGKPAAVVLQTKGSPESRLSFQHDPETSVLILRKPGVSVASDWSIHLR
T3 sequence (O08795 15-521 partner): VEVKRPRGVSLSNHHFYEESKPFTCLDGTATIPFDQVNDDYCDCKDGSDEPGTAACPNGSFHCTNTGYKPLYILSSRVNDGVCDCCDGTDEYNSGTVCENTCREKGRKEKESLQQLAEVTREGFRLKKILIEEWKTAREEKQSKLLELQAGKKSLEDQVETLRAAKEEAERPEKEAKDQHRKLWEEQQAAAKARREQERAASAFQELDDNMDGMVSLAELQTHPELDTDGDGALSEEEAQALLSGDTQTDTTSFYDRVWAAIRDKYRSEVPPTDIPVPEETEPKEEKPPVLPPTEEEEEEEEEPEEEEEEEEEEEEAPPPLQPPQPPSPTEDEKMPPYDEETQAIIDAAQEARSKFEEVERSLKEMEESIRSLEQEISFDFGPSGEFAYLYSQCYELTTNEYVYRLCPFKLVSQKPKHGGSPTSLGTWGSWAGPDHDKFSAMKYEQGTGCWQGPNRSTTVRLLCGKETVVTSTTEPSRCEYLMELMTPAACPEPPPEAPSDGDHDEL
Description: enzyme inhibition assay, purified enzyme on Mouse ER α-glucosidase II

T1 sequence (P23739 1-1013 limits assumed): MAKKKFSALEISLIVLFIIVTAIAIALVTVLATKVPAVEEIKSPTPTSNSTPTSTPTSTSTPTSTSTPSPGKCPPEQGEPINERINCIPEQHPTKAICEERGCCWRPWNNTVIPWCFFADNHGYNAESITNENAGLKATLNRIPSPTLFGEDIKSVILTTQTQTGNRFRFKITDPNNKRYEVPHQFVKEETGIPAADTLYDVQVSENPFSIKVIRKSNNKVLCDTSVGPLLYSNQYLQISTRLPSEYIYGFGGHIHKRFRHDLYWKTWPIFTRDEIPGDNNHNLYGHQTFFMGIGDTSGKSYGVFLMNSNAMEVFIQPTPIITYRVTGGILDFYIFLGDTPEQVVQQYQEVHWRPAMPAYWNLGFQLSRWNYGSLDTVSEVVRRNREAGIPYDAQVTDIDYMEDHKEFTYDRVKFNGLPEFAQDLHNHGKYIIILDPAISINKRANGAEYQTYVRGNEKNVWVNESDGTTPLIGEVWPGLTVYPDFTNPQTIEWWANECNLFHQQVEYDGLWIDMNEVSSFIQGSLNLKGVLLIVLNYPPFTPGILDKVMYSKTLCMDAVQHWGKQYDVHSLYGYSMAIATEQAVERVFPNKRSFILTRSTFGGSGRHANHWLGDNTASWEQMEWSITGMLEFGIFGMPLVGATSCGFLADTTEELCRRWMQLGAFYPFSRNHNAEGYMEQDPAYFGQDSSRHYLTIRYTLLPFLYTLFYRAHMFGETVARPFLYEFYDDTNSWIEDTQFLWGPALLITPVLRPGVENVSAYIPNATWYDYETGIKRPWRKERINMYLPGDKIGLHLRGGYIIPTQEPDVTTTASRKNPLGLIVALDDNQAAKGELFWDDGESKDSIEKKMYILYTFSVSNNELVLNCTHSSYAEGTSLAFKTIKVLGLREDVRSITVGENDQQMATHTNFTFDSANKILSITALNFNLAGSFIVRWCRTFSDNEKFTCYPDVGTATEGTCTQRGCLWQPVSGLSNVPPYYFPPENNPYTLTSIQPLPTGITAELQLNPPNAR

## COCCCCCCCCCN1C[C@H](O)[C@@H](O)[C@H](O)[C@H]1CO [UV-4B, N-(9′-methoxynonyl)-1-deoxynojirimycin hydrochloride]
[1]
  IC50: 1.4 µM
[2]
  free oligosaccharide (Glc1Man4GlcNAc1) accumulation in human MDMΦs: UV-4B led to accumulation of FOS representative of inhibition of both α-glucosidases
[3]
  IC50: 1.8 µM
